This experiment deals with up to 32 different microorganisms. Description: in vitro antibacterial activity (MIC), agar dilution on Brain Heart Infusion (BHI) agar with Steers replicator. Particulars: unit assumed. Type of experiment: cell-based. As to the method: Representative compounds of the present invention were assayed in vitro for antibacterial activity as follows: Twelve petri dishes containing successive aqueous dilutions of the test compound mixed with 10 mL of sterilized Brain Heart Infusion (BHI) agar (Difco 0148-01-5) were prepared. Each plate was inoculated with 1:100 (or 1:10 for slow-growing strains, such as Micrococcus and Streptococcus) dilutions of up to 32 different microorganisms, using a Steers replicator block. The inoculated plates were incubated at 35°-37° C. for 20 to 24 hours. In addition, a control plate, using BHI agar containing no test compound, was prepared and incubated at the beginning and end of each test.
An additional plate containing a compound having known susceptibility patterns for the organisms being tested and belonging to the same antibiotic class as the test compound was also prepared and incubated as a further control, as well as to provide test-to-test comparability. Erythromycin A was used for this purpose.
After incubation, each plate was visually inspected. The minimum inhibitory concentration (MIC) was defined as the lowest concentration of drug yielding no growth, a slight haze, or sparsely isolated colonies on the inoculum spot as compared to the growth control.

The mark [1] stands for this setting: Candida albicans CCH 442 (code TT).
The mark [2] stands for this setting: Enterococcus faecism ATCC 8043 (code II).
Setting [3] is: Escherichia coli DC-2 (code SS).
[4] abbreviates: Escherichia coli JUHL (code QQ).
Where [5] appears, read: Haemophilis influenzae DILL AMP R (code WW).
The mark [6] stands for this setting: Micrococcus luteus ATCC 4698 (code PP).
Where [7] appears, read: Micrococcus luteus ATCC 9341 (code OO).
Where [8] appears, read: Mycobacterium smegmatis ATCC 114 (code UU).
[9] abbreviates: Nocardia Asteroides ATCC9970 (code VV).
[10] abbreviates: Staphylococcus aureus 1775 (code GG).
[11] abbreviates: Staphylococcus aureus A5177 (code BB).
Setting [12] is: Staphylococcus aureus A-5278 (code CC).
The mark [13] stands for this setting: Staphylococcus aureus ATCC 6538P (code AA).
Setting [14] is: Staphylococcus aureus CMX 553 (code FF).
The mark [15] stands for this setting: Staphylococcus aureus CMX 642A (code DD).
The mark [16] stands for this setting: Staphylococcus aureus NCTC10649M (code EE).
The mark [17] stands for this setting: Staphylococcus epidermidis 3519 (code HH).
[18] abbreviates: Streptococcus Pneumonia 5649 (code ZZA).
Where [19] appears, read: Streptococcus Pneumonia 5979 (code ZZ).
Setting [20] is: Streptococcus Pneumonia ATCC6303 (code XX).
[21] abbreviates: Streptococcus Pneumonia GYR 1171 (code YY).
[22] abbreviates: Streptococcus agalactiae CMX 508 (code KK).
Where [23] appears, read: Streptococcus bovis A-5169 (code JJ).
Where [24] appears, read: Streptococcus pyogenes 930 (code MM).
Where [25] appears, read: Streptococcus pyogenes EES61 (code LL).
Where [26] appears, read: Streptococcus pyogenes PIU 2548 (code NN).

The structures appear in SMILES notation. Converted amounts (≈) assume the structure as drawn.

Take `CCC1OC(=O)C(C)C(=O)C(C)C(OC2OC(C)CC(N(C)C)C2O)C(C)(OCC=Cc2cnc3ccccc3c2)CC(C)C(=O)C(C)C2N(CC=Cc3cnc4ccccc4c3)C(=O)OC12C` (stereo not shown) [Example 184, Compound of Formula (IX): L is CO, T is T is N (CH2CH═CH-(3-quinolyl)), R is —CH2CH═CH-(3-quinolyl)]: the MIC is, setting by setting: under setting [1], over 100 µg/mL; under setting [2], 0.2 µg/mL; under setting [3], over 100 µg/mL; under setting [4], over 100 µg/mL; (Escherichia coli SS (code RR)) 12.5 µg/mL; under setting [5], over 128 µg/mL. Also, the MIC reads like this: under setting [6], 0.78 µg/mL; under setting [7], 0.39 µg/mL; under setting [8], 6.2 µg/mL; under setting [9], 3.1 µg/mL; under setting [10], over 100 µg/mL; under setting [11], 1.56 µg/mL. For the same molecule, the MIC is over 100 µg/mL under setting [12]; 3.1 µg/mL under setting [13]; 1.56 µg/mL under setting [14]; 3.1 µg/mL under setting [15]; 3.1 µg/mL under setting [16]; 3.1 µg/mL under setting [17]. For the same molecule, the MIC came to 2 µg/mL under setting [18]; 32 µg/mL under setting [19]; 1 µg/mL under setting [20]; 0.5 µg/mL under setting [21]; 0.1 µg/mL under setting [22]; 0.1 µg/mL under setting [23]. The MIC reads like this: under setting [24], 25 µg/mL; under setting [25], 0.1 µg/mL; under setting [26], 1.56 µg/mL.

In the case of `CCC1OC(=O)C(C)C(=O)C(C)C(OC2OC(C)CC(N(C)C)C2O)C(C)(OCC=Cc2cnc3ncccc3c2)CC(C)C(=O)C(C)C2NC(=O)OC12C` (stereo not shown) [Example 202, R is —CH2CH═CH-(1,8-naphthyridin-3-yl)], the MIC reads like this: (organism code XX) 0.03 µg/mL (≈ 0.0391 µM); (organism code YY) 0.03 µg/mL (≈ 0.0391 µM); (organism code ZZ) 32 µg/mL (≈ 41.7 µM); (organism code ZZA) 2 µg/mL (≈ 2.61 µM).

As to `CC[C@H]1OC(=O)[C@H](C)C(=O)[C@H](C)[C@@H](O[C@@H]2O[C@H](C)C[C@H](N(C)C)[C@H]2O)[C@@](C)(OCC=Cc2ccc(Cl)cc2)C[C@@H](C)C(=O)[C@H](C)[C@@H](O)[C@]1(C)O` [Example 17, Compound of Formula (VIII): X is O, R is —CH2CH═CH-(4-chlorophenyl)], the MIC by setting is: under setting [1], 50 µg/mL; under setting [2], 1.56 µg/mL; under setting [3], over 100 µg/mL; under setting [4], over 100 µg/mL; (Escherichia coli SS (code RR)) 12.5 µg/mL; under setting [5], 64 µg/mL. Further, the MIC by setting is: under setting [6], 0.78 µg/mL; under setting [7], 0.39 µg/mL; under setting [8], 3.1 µg/mL; under setting [9], 3.1 µg/mL; under setting [10], 50 µg/mL; under setting [11], 1.56 µg/mL. Moreover, the MIC worked out at 50 µg/mL under setting [12]; 1.56 µg/mL under setting [13]; 1.56 µg/mL under setting [14]; 1.56 µg/mL under setting [15]; 1.56 µg/mL under setting [16]; 1.56 µg/mL under setting [17]. Besides, the MIC turned out to be 2 µg/mL under setting [18]; 32 µg/mL under setting [19]; 1 µg/mL under setting [20]; 0.5 µg/mL under setting [21]; 0.78 µg/mL under setting [22]; 0.39 µg/mL under setting [23]. The MIC under setting [24] came to 25 µg/mL, the MIC under setting [25] was found to be 0.78 µg/mL and the MIC under setting [26] turned out to be 0.78 µg/mL.

Regarding `CCC1OC(=O)C(C)C(=O)C(C)C(OC2OC(C)CC(N(C)C)C2O)C(C)(OCC=Cc2ccc3cccnc3c2)CC(C)C(=O)C(C)C2NC(=O)OC12C` (stereo not shown) [Example 278, Compound of Formula (IX): L is CO, T is NH2, R is —CH2CH═CH-(7-quinolyl)], the MIC by setting is: (organism code AA) 0.05 µg/mL; (organism code BB) 0.05 µg/mL; (organism code CC) over 100 µg/mL; (organism code DD) 0.05 µg/mL; (organism code EE) 0.05 µg/mL; (organism code FF) 0.05 µg/mL. The MIC is over 100 µg/mL (organism code GG); 0.1 µg/mL (organism code HH); 0.05 µg/mL (organism code II); 0.01 µg/mL (organism code JJ); 0.01 µg/mL (organism code KK); at most 0.005 µg/mL (organism code LL). Also, the MIC stood at 1.56 µg/mL (organism code MM); 0.2 µg/mL (organism code NN); 0.01 µg/mL (organism code OO); 0.1 µg/mL (organism code PP); 25 µg/mL (organism code QQ); 0.39 µg/mL (organism code RR). The MIC by setting is: (organism code SS) 12.5 µg/mL; (organism code TT) over 100 µg/mL; (organism code UU) 0.78 µg/mL; (organism code VV) 0.02 µg/mL; (organism code WW) 4 µg/mL; (organism code XX) 0.03 µg/mL. For the same molecule, the MIC is, setting by setting: (organism code YY) 0.03 µg/mL; (organism code ZZ) 128 µg/mL; (organism code ZZA) 0.5 µg/mL.

Turning to `CCC1OC(=O)C(C)C(=O)C(C)C(OC2OC(C)CC(N(C)C)C2O)C(C)(OCc2cccc(I)c2)CC(C)C(=O)C(C)C2NC(=O)OC12C` (stereo not shown) [Example 285, Compound of Formula (IX): L is CO, T is NH2, R is —CH2-(3-iodophenyl)], the MIC (organism code AA) is 3.1 µg/mL; the MIC (organism code BB) is 3.1 µg/mL; the MIC (organism code CC) was over 100 µg/mL; the MIC (organism code DD) came out at 3.1 µg/mL; the MIC (organism code EE) amounted to 3.1 µg/mL; the MIC (organism code FF) was determined as 3.1 µg/mL. For the same molecule, the MIC is over 100 µg/mL (organism code GG); 3.1 µg/mL (organism code HH); 0.39 µg/mL (organism code II); 0.2 µg/mL (organism code JJ); 0.2 µg/mL (organism code KK); 0.05 µg/mL (organism code LL). This molecule also displayed an MIC (organism code MM) of 100 µg/mL; an MIC (organism code NN) of 0.78 µg/mL; an MIC (organism code OO) of 0.39 µg/mL; an MIC (organism code PP) of 0.39 µg/mL; an MIC (organism code QQ) of over 100 µg/mL; an MIC (organism code RR) of 12.5 µg/mL. Besides, the MIC reads like this: (organism code SS) over 100 µg/mL; (organism code TT) over 100 µg/mL; (organism code UU) 6.2 µg/mL; (organism code VV) 1.56 µg/mL; (organism code WW) over 128 µg/mL; (organism code XX) 0.25 µg/mL. In addition, the MIC was 0.25 µg/mL (organism code YY), 64 µg/mL (organism code ZZ) and 1 µg/mL (organism code ZZA).

For the molecule `CCC1OC(=O)C(C)C(=O)C(C)C(OC2OC(C)CC(N(C)C)C2O)C(C)(OCC#Cc2cnc3ccccc3c2)CC(C)C(=O)C(C)C2NC(=O)OC12C` (stereo not shown) [Example 247, Compound of Formula (IX): L is CO, T is NH, R is —CH2—C≡C-(3-quinolyl)], the MIC by setting is: (organism code AA) 0.05 µg/mL; (organism code BB) 0.05 µg/mL; (organism code CC) over 100 µg/mL; (organism code DD) 0.05 µg/mL; (organism code EE) 0.05 µg/mL; (organism code FF) 0.05 µg/mL. The MIC runs as follows: (organism code GG) over 100 µg/mL; (organism code HH) 0.05 µg/mL; (organism code II) 0.02 µg/mL; (organism code JJ) at most 0.005 µg/mL; (organism code KK) 0.01 µg/mL; (organism code LL) 0.01 µg/mL. Further, the MIC reads like this: (organism code MM) 0.39 µg/mL; (organism code NN) 0.1 µg/mL; (organism code OO) 0.01 µg/mL; (organism code PP) 0.02 µg/mL; (organism code QQ) 25 µg/mL; (organism code RR) 0.2 µg/mL. This molecule returned an MIC (organism code SS) of 25 µg/mL; an MIC (organism code TT) of over 100 µg/mL; an MIC (organism code UU) of 0.39 µg/mL; an MIC (organism code VV) of 0.01 µg/mL; an MIC (organism code WW) of 1 µg/mL; an MIC (organism code XX) of at most 0.004 µg/mL. In addition, the MIC is at most 0.004 µg/mL (organism code YY), 4 µg/mL (organism code ZZ) and 0.25 µg/mL (organism code ZZA).

Values taken from patent USRE39591E1, “6-O-substituted ketolides having antibacterial activity” (Abbott Laboratories, priority 1996, dated 2007).
